Test results taken from patent US4314989A, “Methionine sulfoxide amflioration of acetaminophen toxicity” (priority 1980, dated 1982).

Experiments:
[1] = tested on: acetaminophen hepatotoxicity; conditions: cited from earlier work; for effect on acetaminophen hepatotoxicity: J. Kelleher et al.
[2] = tested on: man and experimental animals; conditions: cited from earlier work
hamsters [3] = assay: Enhancement of acetaminophen toxicity by BHA and protection by methionine sulfoxide in hamsters; format: in vivo, hamster
Method: Hamsters weighing about 70 gm. each were divided into five groups of animals. […] All deaths occurred within 48 hours. The survivors all were alive one week later when examined again.
Methionine sulfoxide protects the hamsters against the enhanced acetaminophen toxicity up to dosages of about 200 mg/kg of BHA.

[4] = tested on: acetaminophen hepatotoxicity; assay: Effect of BHT and BHA on hepatotoxicity of acetaminophen (general finding); conditions: in vivo
Text: Because the general population consumes large amounts of these chemicals daily, because of their presence in a wide variety of food products, the likelihood of an increased incidence of hepatoxicity in persons taking repeated dosages of acetaminophen is self-evident.

hamsters [5] = assay: Enhancement of acetaminophen toxicity by BHT and protection by methionine sulfoxide in hamsters; format: in vivo, hamster
Method: (§1) Hamsters weighing about 70 gm. each were divided into five groups of animals. An aqueous solution (ca. 0.7 ml) of […]. (600 mg/kg) of acetaminophen and an amount of methionine sulfoxide listed in the table below, was administered intraperitoneally to each hamster. All deaths occurred within 48 hours. The survivors all were alive one week later when examined again.
(§2) Following the above procedure, hamsters were given i.p. either 300 mg/kg of acetaminophen or 600 mg/kg BHT.

hamsters [6] = assay: animal or person; format: in vivo, hamster; conditions: for % Deaths: deaths within 48 hours; for hamsters protected from the otherwise lethal dosage of acetaminophen: acetaminophen 600 mg/kg i.p.
Method: as §1

humans = conditions: in vivo; cited from earlier work
man = conditions: vitamin C with acetaminophen, cited from earlier work
vitamin E deficient rats = conditions: cited from earlier work
inbred mice = conditions: suggested for humans from studies with inbred mice; cited from earlier work
[7] = Enhancement of acetaminophen toxicity by BHT and protection by methionine sulfoxide in hamsters; format: in vivo, hamster; conditions: hamster, in vivo, ip; i.p. mixture of 300 mg/kg acetaminophen and 600 mg/kg BHT; within 24 hours; read-out: deaths
Method: as §1, §2

[8] = tested on: hepatotoxicity after an overdose of acetaminophen; conditions: administered within 16 hours after an overdose of acetaminophen; clinical study; cited from earlier work
mice [9] = conditions: cited from earlier work
mice [10] = conditions: administered up to one hour after acute toxic amounts of acetaminophen; cited from earlier work
[11] = i.p. mixture of 300 mg/kg acetaminophen and 100 mg/kg BHA, all hamsters
[12] = acetaminophen 300 mg/kg i.p. alone

CCCOC(=O)c1cc(O)c(O)c(O)c1 [propyl gallate]
effect on acetaminophen hepatotoxicity [1]: reduce hepatotoxicity

CSCC[C@H](N)C(=O)O [methionine]
protection against the hepatotoxicity of acetaminophen [2]: varying degrees of protection

dimethylmercaptol
protection against the hepatotoxicity of acetaminophen [2]: varying degrees of protection

COc1ccc(O)c(C(C)(C)C)c1 [BHA, butylated hydroxyanisole]
deaths (hamsters [3]; BHA 100-300 mg/kg i.p. alone): no deaths occurred
incidence of deaths (hamsters [3]; higher amounts of BHA (than 100 mg/kg) with acetaminophen): higher incidence of deaths
survival (hamsters [3]; i.p. mixture of 300 mg/kg acetaminophen and 100 mg/kg BHA): most survive
coma (hamsters [3]; [11]): go into a coma
time to coma (hamsters [3]; [11]): 15 to 20 min
effect on hepatotoxicity of acetaminophen [4]: profoundly enhance its hepatotoxicity

C[S+]([O-])CC[C@H](N)C(=O)O (stereo partly drawn) [methionine sulfoxide]
coma produced by the combination of acetaminophen and BHA (hamsters [3]; methionine sulfoxide treated, survivors): manifested even in the survivors
dosage of BHA up to which hamsters are protected against the enhanced acetaminophen toxicity (hamsters [3]; methionine sulfoxide with acetaminophen and BHA, value is BHA dosage (up to about)): about 200 mg/kg
deaths (hamsters [5]; methionine sulfoxide 150 mg/kg concurrently with 300 mg/kg acetaminophen and 600 mg/kg BHT): no deaths occurred
ED50 (hamsters [6]; Mesocricetus auratus, ip): ~65 mg/kg
% Deaths (hamsters [6]; methionine sulfoxide 50 mg/kg i.p. with acetaminophen 600 mg/kg, 15 animals): 60%
% Deaths (hamsters [6]; methionine sulfoxide 100 mg/kg i.p. with acetaminophen 600 mg/kg, 17 animals): 23.5%
hamsters protected from the otherwise lethal dosage of acetaminophen (hamsters [6]; methionine sulfoxide 100 mg/kg): over 75%
% Deaths (hamsters [6]; methionine sulfoxide 200 mg/kg i.p. with acetaminophen 600 mg/kg, 17 animals): 0%
hamsters protected from the otherwise lethal dosage of acetaminophen (hamsters [6]; methionine sulfoxide 200 mg/kg): protected all of the hamsters
% Deaths (hamsters [6]; methionine sulfoxide 400 mg/kg i.p. with acetaminophen 600 mg/kg, 8 animals): 0%
hamsters protected from the otherwise lethal dosage of acetaminophen (hamsters [6]; methionine sulfoxide 400 mg/kg): protected all of the hamsters

[Se] [selenium]
protection against the hepatotoxicity of acetaminophen [2]: varying degrees of protection

CCO [alcohol]
potentiation of acetaminophen hepatotoxicity (humans): markedly potentiate the hepatotoxicity

O=C1O[C@H]([C@@H](O)CO)C(O)=C1O [vitamin C, ascorbic acid]
protection against the hepatotoxic effects of acetaminophen ([1]; Raghuram et al.): may provide such protection
apparent half-life of drug (acetaminophen) (man; by rate of secretion in the urine): did not affect the apparent half-life
excretion rate of acetaminophen sulfate (man): rapid and pronounced decrease

Cc1c(C)c2c(c(C)c1O)CCC(C)(CCCC(C)CCCC(C)CCCC(C)C)O2 (stereo not drawn) [vitamin E, α-tocopherol]
effect on acetaminophen hepatotoxicity [1]: reduce hepatotoxicity
protection against the hepatotoxicity of acetaminophen [2]: varying degrees of protection
protection against the hepatotoxic effects of acetaminophen (vitamin E deficient rats): provides such protection

CC(=O)Nc1ccc(O)cc1 [acetaminophen]
deaths (hamsters [3]; [12]): no deaths occurred
cataracts (inbred mice): can cause cataracts in humans
deaths (hamsters [5]; [12]): No deaths occurred
hepatic necrosis (humans): can cause massive hepatic necrosis
% Deaths (hamsters [6]; acetaminophen 600 mg/kg i.p. alone (methionine sulfoxide 0), 17 animals): 94%

N[C@@H](CS)C(=O)O [cysteine]
protection against the hepatotoxicity of acetaminophen [2]: varying degrees of protection

Cc1cc(C(C)(C)C)c(O)c(C(C)(C)C)c1 [BHT, butylated hydroxytoluene]
deaths (hamsters [5]; BHT 600 mg/kg i.p. alone): No deaths occurred
enhancement of acetaminophen toxicity (hamsters [5]; i.p. mixture of 300 mg/kg acetaminophen and 600 mg/kg BHT): profound enchancement of acetaminophen toxicity
mortality at 24 h [7]: 100%
effect on hepatotoxicity of acetaminophen [4]: profoundly enhance its hepatotoxicity

NCCS [cysteamine]
protection against the hepatotoxicity of acetaminophen [2]: varying degrees of protection

CC(=O)N[C@@H](CS)C(=O)O [acetylcysteine]
prevention of hepatotoxicity [8]: effective in preventing hepatotoxicity

C[S+](C)[O-] [Dimethyl sulfoxide]
protection against CCl4 hepatotoxicity (mice [9]): inability of DMSO to protect mice
protection against the hepatotoxic effects of acetaminophen (mice [10]): protect mice against the hepatotoxic effects of acetaminophen
